For 17 compounds, IC50 results are on record in US11077113B2, “6-aryl-4-morpholin-1-ylpyridone compounds useful for the treatment of cancer and diabetes” (priority 2016, dated 2021).

One test has as its target Vps34 enzyme (Homo sapiens (Human), UniProt Q8NEB9). In words: Vps34 Biochemical Assay (Adapta TR-FRET). The following applies: 20 μM ATP and 200 μM PI:PS in substrate mix, 1 h at room temperature, read-out: Median IC50 μM Adapta. The procedure:
Dilution series of compounds of the invention were prepared in DMSO at 100 times the final assay concentration (n1=n0/3 in 10 points). The compounds were further diluted to 4 times the assay concentration in assay buffer (Life technologies buffer Q, PV5125, diluted 5 times supplemented with 2 mM DTT and 2 mM MnCl2). 2.5 μl of the diluted compounds were added to a 384 well assay plate followed by 2.5 μl of 16.5 nM Vps34 enzyme (Life technologies, PV5126). Enzyme and compounds were preincubated at rt for 15 min. Then 5 μl of substrate mix containing 20 μM ATP (Life technologies, PV3227) and 200 μM PI:PS substrate (Life technologies, PV5122) in assay buffer was added to the wells containing compound and enzyme and mixing was performed by pipetting several times. The reaction was incubated at room temperature for 1 h. Then 5 μl stop-detection mix, prepared as described in the adapta kinase assay kit instructions (Life technologies, PV5099) containing Adapta Eu-anti-ADP antibody (2.3 nM), Alexa Fluor 647 ADP tracer (9 nM) and EDTA (30 mM) in TR-FRET buffer, was added to quench the reaction. Mixing was performed by pipetting several times. The assay plate was then incubated at room temperature for 30 min and read with Artemis micro plate reader. Percent inhibition of the compounds as compared to DMSO treated control samples was calculated. By the use of Dotmatics software compound concentration versus percent inhibition was fitted to generate IC50 values.

In the next test the test system is autophagy in HOS cells. The test can be described thus: High Content Screening Autophagy Assay (GFP-LC3 foci). The following applies: Homo sapiens; HOS cells expressing GFP-LC3; autophagy activated with KU-0063794 500 nM plus Bafilomycin A1 5 nM; 6 hours; foci area per cell; read-out: Median IC50 μM Cellular assay. Format: cell-based. The procedure:
High Content Screening Autophagy Assay
Human osteosarcoma cells (HOS) stably expressing a Green Fluorescent Protein (GFP) tagged LC3 (GFP-LC3) were used to determine the inhibitory effect on autophagy of proprietary compounds. For that purpose, autophagy was activated by using the mTOR inhibitor KU-0063794 at 500 nM in the presence of Bafilomycin A1 (Sigma-Aldrich) at 5 nM. Shortly, cells were plated overnight in clear bottom 96-well plates in DMEM-High Modified media (Hi-Clone Cat #SH30285.01). At the start of the experiment, the media was removed and replaced with fresh media containing the mTOR inhibitor, Bafilomycin A1 and the vehicle or a test compound as indicated. After 6 hours the media was removed, cells were washed twice with ice-cold phosphate buffered saline (PBS) and fixed with 4% paraformaldehyde for 20 minutes at room temperature. Then the cells were washed twice with ice-cold PBS before adding Hoechst 33342 at 1 μg/ml in PBS for nuclear staining. After incubation overnight at 4° C., cells were washed once with PBS to remove the excess of dye and 100 μl of PBS was added to each well. Images were acquired at 20× magnification, 6 images per well, using the ImageXpress automated microscope (Molecular Devices Inc.) and analyzed with MetaXpress software to identify LC3-GFP foci. Foci area per cell values were used to generate dose response curves and IC50 calculated using non-linear fitting analysis in GraphPad Prism software.
The results of the assay are shown in Table 2 (Median IC50 μM Cellular assay).

The structures appear in SMILES notation.

Sequence of Vps34 enzyme (Q8NEB9 whole entry): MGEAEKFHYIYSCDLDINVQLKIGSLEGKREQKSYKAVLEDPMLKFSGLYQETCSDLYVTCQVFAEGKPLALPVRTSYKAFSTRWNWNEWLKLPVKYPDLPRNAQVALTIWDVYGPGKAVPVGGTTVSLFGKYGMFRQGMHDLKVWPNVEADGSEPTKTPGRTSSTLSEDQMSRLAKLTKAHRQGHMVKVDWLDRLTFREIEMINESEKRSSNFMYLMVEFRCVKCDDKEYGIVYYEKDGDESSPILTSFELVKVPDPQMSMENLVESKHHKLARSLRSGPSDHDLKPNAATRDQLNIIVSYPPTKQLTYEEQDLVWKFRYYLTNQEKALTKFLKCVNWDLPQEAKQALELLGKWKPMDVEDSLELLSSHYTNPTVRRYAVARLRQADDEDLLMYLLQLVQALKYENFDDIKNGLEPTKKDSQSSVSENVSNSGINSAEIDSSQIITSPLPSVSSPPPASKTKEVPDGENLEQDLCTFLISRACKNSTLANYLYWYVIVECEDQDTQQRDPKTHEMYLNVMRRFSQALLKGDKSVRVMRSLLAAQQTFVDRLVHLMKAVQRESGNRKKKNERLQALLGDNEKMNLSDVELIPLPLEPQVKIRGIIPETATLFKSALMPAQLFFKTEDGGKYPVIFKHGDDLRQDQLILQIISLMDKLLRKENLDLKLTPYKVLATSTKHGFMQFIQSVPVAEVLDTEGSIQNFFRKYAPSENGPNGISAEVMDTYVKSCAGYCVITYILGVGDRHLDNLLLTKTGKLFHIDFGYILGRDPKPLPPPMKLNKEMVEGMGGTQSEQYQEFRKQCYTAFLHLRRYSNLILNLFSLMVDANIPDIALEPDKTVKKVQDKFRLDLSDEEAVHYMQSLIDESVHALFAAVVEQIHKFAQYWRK

As to `Cc1ccc2ncccc2c1-c1cc(N2CCOC[C@H]2C)cc(=O)[nH]1` [Example 16, 4-[(3R)-3-methylmorpholin-4-yl]-6-(6-methyl-5-quinolyl)-1H-pyridin-2-one], the IC50 on Vps34 enzyme is 0.2 µM.
With `Cc1cscc1-c1cc(N2CCOC[C@H]2C)cc(=O)[nH]1` [Example 14, 4-[(3R)-3-methylmorpholin-4-yl]-6-(4-methyl-3-thienyl)-1H-pyridin-2-one], on Vps34 enzyme, the IC50 was 0.03 µM.
For `CC1COCCN1c1cc(-c2ccccc2Cl)n(C)c(=O)c1` (stereo not drawn) [Example 4, 6-(2-chlorophenyl)-1-methyl-4-(3-methylmorpholin-4-yl)pyridin-2-one], the IC50 on Vps34 enzyme came to 0.02 µM; with autophagy in HOS cells, 1 µM.
On to `Cc1ccccc1-c1cc(N2CCOC[C@H]2C)cc(=O)[nH]1` [Example 9, 4-[(3R)-3-methylmorpholin-4-yl]-6-(o-tolyl)-1H-pyridin-2-one], for which the IC50 at Vps34 enzyme amounted to 0.03 µM.
Turning to `C[C@@H]1COCCN1c1cc(-c2ccccc2Cl)[nH]c(=O)c1` [Example 11, 6-(2-chlorophenyl)-4-[(3R)-3-methylmorpholin-4-yl]-1H-pyridin-2-one], the IC50 came to 0.007 µM at Vps34 enzyme and 0.6 µM with autophagy in HOS cells.
As to `O=c1cc(N2CCOCC2)cc(-c2ccccc2Cl)[nH]1` [Example 1, 6-(2-chlorophenyl)-4-morpholino-1H-pyridin-2-one], the IC50 was 0.03 µM at Vps34 enzyme and 2 µM with autophagy in HOS cells.
In the case of `Cc1ccncc1-c1cc(N2CCOCC2C)cc(=O)[nH]1` (stereo not drawn) [Example 5, 4-(3-methylmorpholin-4-yl)-6-(4-methyl-3-pyridyl)-1H-pyridin-2-one], the IC50 was 0.1 µM on Vps34 enzyme and 14 µM in the test on autophagy in HOS cells.
As for `C[C@@H]1COCCN1c1cc(-c2cc(F)ccc2Cl)[nH]c(=O)c1` [Example 8, 6-(2-chloro-5-fluoro-phenyl)-4-[(3R)-3-methylmorpholin-4-yl]-1H-pyridin-2-one], the IC50 came to 0.01 µM at Vps34 enzyme and 1 µM in the test with autophagy in HOS cells.
The matching figures for `CC1COCCN1c1cc(-c2cncnc2)[nH]c(=O)c1` (stereo not drawn) [Example 6, 4-(3-methylmorpholin-4-yl)-6-pyrimidin-5-yl-1H-pyridin-2-one]: 1 µM and 14 µM.
For `C[C@@H]1COCCN1c1cc(-c2ccccc2C(F)(F)F)[nH]c(=O)c1` [Example 12, 4-[(3R)-3-methylmorpholin-4-yl]-6-[2-(trifluoromethyl)phenyl]-1H-pyridin-2-one], the IC50 came out at 0.007 µM at Vps34 enzyme and 0.6 µM in the test on autophagy in HOS cells.
As for `Cn1c(-c2ccccc2Cl)cc(N2CCOCC2)cc1=O` [Example 2, 6-(2-chlorophenyl)-1-methyl-4-morpholino-pyridin-2-one], the IC50 on Vps34 enzyme came to 0.05 µM; in the test on autophagy in HOS cells it was 3 µM.
`C[C@@H]1COCCN1c1cc(-c2ccccc2NS(C)(=O)=O)[nH]c(=O)c1` [Example 15, N-[2-[4-[(3R)-3-methylmorpholin-4-yl]-6-oxo-1H-pyridin-2-yl]phenyl]methanesulfonamide]: the IC50 on Vps34 enzyme was determined as 0.2 µM.
For the compound `CC1COCCN1c1cc(-c2ccccc2Cl)[nH]c(=O)c1` (stereo not drawn) [Example 3, 6-(2-chlorophenyl)-4-(3-methylmorpholin-4-yl)-1H-pyridin-2-one], the IC50 stood at 0.01 µM on Vps34 enzyme and 0.7 µM in the test with autophagy in HOS cells.
Consider `C[C@@H]1COCCN1c1cc(-c2ccoc2)[nH]c(=O)c1` [Example 13, 6-(3-furyl)-4-[(3R)-3-methylmorpholin-4-yl]-1H-pyridin-2-one], for which the IC50 at Vps34 enzyme amounted to 0.2 µM.
Regarding `CC1COCCN1c1cc(-c2ccccc2-c2ccccc2)[nH]c(=O)c1` (stereo not drawn) [Example 7, 4-(3-methylmorpholin-4-yl)-6-(2-phenylphenyl)-1H-pyridin-2-one], on Vps34 enzyme, the IC50 worked out at 0.06 µM.
Same read-out and setting: under `C[C@@H]1COCCN1c1cc(-c2ccc(-c3ccn[nH]3)cc2)[nH]c(=O)c1` [Example 17, 4-[(3R)-3-methylmorpholin-4-yl]-6-[4-(1H-pyrazol-5-yl)phenyl]-1H-pyridin-2-one] stands 0.2 µM.
Turning to `C[C@@H]1COCCN1c1cc(-c2cccnc2C(F)(F)F)[nH]c(=O)c1` [Example 10, 4-[(3R)-3-methylmorpholin-4-yl]-6-[2-(trifluoromethyl)-3-pyridyl]-1H-pyridin-2-one], the IC50 at Vps34 enzyme came to 0.02 µM; in the test with autophagy in HOS cells, 0.09 µM.
